Reference: ChEMBL document CHEMBL1201862, “PubChem BioAssay data set” (2004)
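The compound was tested at five concentrations on cells cultured in 96-well plates, with a 48-hour exposure period. At the GI50, growth is halved.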 The source made the active and inactive calls. Cut-off read from the data, not from the text of the source: active = GI50 up to about 1.1 µM and inactive = higher.

Assays:
Test in all cases: NCI tumour cell line growth inhibition, 48 h
[1] = tested on: MOLT-4
[2] = tested on: UACC-62
[3] = tested on: BT-549
[4] = tested on: A549
[5] = tested on: SK-MEL-2
[6] = tested on: ACHN
[7] = tested on: T47D
[8] = tested on: A498
[9] = tested on: OVCAR-3
[10] = tested on: RXF 393
[11] = tested on: SW-620
[12] = tested on: HCT-15
[13] = tested on: Malme-3M
[14] = tested on: HOP-62
[15] = tested on: UACC-257
[16] = tested on: UO-31
[17] = tested on: TK-10
[18] = tested on: SK-MEL-5
[19] = tested on: NCI-H23
[20] = tested on: IGROV-1
[21] = tested on: HCC 2998
[22] = tested on: DU-145
[23] = tested on: OVCAR-8
[24] = tested on: SF-295
[25] = tested on: SNB-19
[26] = tested on: NCI-H460
[27] = tested on: NCI-H226
[28] = tested on: HCT-116
[29] = tested on: 786-0
[30] = tested on: K562
[31] = tested on: KM12
[32] = tested on: MDA-N
[33] = tested on: CAKI-1
[34] = tested on: HOP-92
[35] = tested on: OVCAR-5
[36] = tested on: NCI-H522
[37] = tested on: LOX IMVI
[38] = tested on: MDA-MB-435
[39] = tested on: NCI/ADR-RES
[40] = tested on: M14
[41] = tested on: SK-MEL-28
[42] = tested on: EKVX
[43] = tested on: HL-60
[44] = tested on: MDA-MB-231
[45] = tested on: PC-3
[46] = tested on: SR
[47] = tested on: U-251
[48] = tested on: SN12C
[49] = tested on: HT-29
[50] = tested on: COLO 205
[51] = tested on: SF-539
[52] = tested on: CCRF-CEM
[53] = tested on: MCF7
[54] = tested on: SK-OV-3
[55] = tested on: SNB-75
[56] = tested on: SF-268
[57] = tested on: OVCAR-4
[58] = tested on: RPMI-8226

`NC(=O)/N=C(\N)NC(=O)c1ccccc1` was tested, and the GI50 [1] was > 100 µM (inactive), the GI50 [2] was > 100 µM (inactive) and the GI50 [3] was > 100 µM (inactive). For the same molecule, the GI50 [4] was > 100 µM (inactive), the GI50 [5] was > 100 µM (inactive) and the GI50 [6] was > 100 µM (inactive). The GI50 [7] was > 100 µM (inactive), the GI50 [8] was > 100 µM (inactive) and the GI50 [9] was > 100 µM (inactive). For the same molecule, the GI50 [10] was > 100 µM (inactive), the GI50 [11] was > 100 µM (inactive) and the GI50 [12] was greater than 100 µM. The GI50 [13] was > 100 µM (inactive), the GI50 [14] was > 100 µM (inactive) and the GI50 [15] was > 100 µM (inactive). For the same molecule, the GI50 [16] was > 100 µM (inactive), the GI50 [17] was > 100 µM (inactive) and the GI50 [18] was > 100 µM (inactive). The GI50 [19] was > 100 µM (inactive), the GI50 [20] was > 100 µM (inactive) and the GI50 [21] was > 100 µM (inactive). For the same molecule, the GI50 [22] was > 100 µM (inactive), the GI50 [23] was > 100 µM (inactive) and the GI50 [24] was > 100 µM (inactive). For the same molecule, the GI50 [25] was > 100 µM (inactive), the GI50 [26] was > 100 µM (inactive) and the GI50 [27] was > 100 µM (inactive). For the same molecule, the GI50 [28] was > 100 µM (inactive), the GI50 [29] was > 100 µM (inactive) and the GI50 [30] was > 100 µM (inactive). For the same molecule, the GI50 [31] was > 100 µM (inactive), the GI50 [32] was > 100 µM (inactive) and the GI50 [33] was > 100 µM (inactive). The GI50 [34] was > 100 µM (inactive), the GI50 [35] was > 100 µM (inactive) and the GI50 [36] was > 100 µM (inactive). For the same molecule, the GI50 [37] was > 100 µM (inactive), the GI50 [38] was > 100 µM (inactive) and the GI50 [39] was > 100 µM (inactive). For the same molecule, the GI50 [40] was > 100 µM (inactive), the GI50 [41] was > 100 µM (inactive) and the GI50 [42] was > 100 µM (inactive). The GI50 [43] was > 100 µM (inactive), the GI50 [44] was > 100 µM (inactive) and the GI50 [45] was > 100 µM (inactive). The GI50 [46] was > 100 µM (inactive), the GI50 [47] was > 100 µM (inactive) and the GI50 [48] was > 100 µM (inactive). For the same molecule, the GI50 [49] was > 100 µM (inactive).
In the case of `COC(=O)[C@@H](NC(=O)c1ccc(CNC(=O)/C(C)=C/c2ccccc2)cc1)C(C)C`, the GI50 [1] was 78.2 µM (inactive), the GI50 [2] was 70 µM (inactive) and the GI50 [50] was 67.9 µM (inactive). The GI50 [3] was > 100 µM (inactive), the GI50 [4] was > 100 µM (inactive) and the GI50 [5] was 51.1 µM (inactive). The GI50 [6] was > 100 µM (inactive), the GI50 [7] was 56.2 µM (inactive) and the GI50 [8] was > 100 µM (inactive). For the same molecule, the GI50 [9] was 27.4 µM (inactive), the GI50 [10] was 79.6 µM (inactive) and the GI50 [11] was > 100 µM (inactive). For the same molecule, the GI50 [12] was greater than 100 µM, the GI50 [13] was > 100 µM (inactive) and the GI50 [14] was > 100 µM (inactive). The GI50 [15] was 14.2 µM (inactive), the GI50 [16] was > 100 µM (inactive) and the GI50 [51] was > 100 µM (inactive). The GI50 [17] was > 100 µM (inactive), the GI50 [18] was 68.4 µM (inactive) and the GI50 [52] was 4.71 µM (inactive). The GI50 [19] was > 100 µM (inactive), the GI50 [20] was > 100 µM (inactive) and the GI50 [21] was 26.9 µM (inactive). The GI50 [22] was > 100 µM (inactive), the GI50 [23] was > 100 µM (inactive) and the GI50 [53] was 42.2 µM (inactive). The GI50 [24] was > 100 µM (inactive), the GI50 [25] was > 100 µM (inactive) and the GI50 [54] was > 100 µM (inactive). For the same molecule, the GI50 [26] was 65 µM (inactive), the GI50 [27] was > 100 µM (inactive) and the GI50 [28] was > 100 µM (inactive). The GI50 [55] was > 100 µM (inactive), the GI50 [29] was > 100 µM (inactive) and the GI50 [30] was > 100 µM (inactive). The GI50 [31] was 36.1 µM (inactive), the GI50 [32] was 66.5 µM (inactive) and the GI50 [33] was > 100 µM (inactive). The GI50 [34] was > 100 µM (inactive), the GI50 [35] was > 100 µM (inactive) and the GI50 [36] was 83.9 µM (inactive). The GI50 [37] was 59.2 µM (inactive), the GI50 [56] was > 100 µM (inactive) and the GI50 [57] was 56.8 µM (inactive). The GI50 [38] was 70 µM (inactive), the GI50 [58] was 69.8 µM (inactive) and the GI50 [39] was > 100 µM (inactive). For the same molecule, the GI50 [40] was 61.2 µM (inactive), the GI50 [41] was 40.8 µM (inactive) and the GI50 [42] was 35.4 µM (inactive). For the same molecule, the GI50 [44] was > 100 µM (inactive), the GI50 [45] was > 100 µM (inactive) and the GI50 [46] was > 100 µM (inactive). The GI50 [47] was > 100 µM (inactive), the GI50 [48] was > 100 µM (inactive) and the GI50 [49] was > 100 µM (inactive).
